Experiment: molar heat capacity at constant pressure
Settings: 101.33 kPa, Crystal, Vacuum adiabatic calorimetry

[Cu] [copper]
Settings	molar heat capacity at constant pressure [J/K/mol]
6.56 K	0.0232
7.16 K	0.0255
7.85 K	0.0323
8.64 K	0.04
9.55 K	0.0534
10.51 K	0.0663
11.42 K	0.0839
12.43 K	0.1121
13.56 K	0.137
14.81 K	0.1926
16.17 K	0.2314
17.69 K	0.304
19.34 K	0.4106
20.19 K	0.4727
21.13 K	0.5555
21.94 K	0.6242
23.08 K	0.7448
23.76 K	0.8181
25.79 K	1.058
28.01 K	1.37
30.46 K	1.761
33.17 K	2.259
36.05 K	2.853
37.57 K	3.173
39.01 K	3.497
40.74 K	3.898
44.1 K	4.708
45.89 K	5.146
47.52 K	5.549
49.38 K	6.025
52.99 K	6.933
54.47 K	7.281
56.65 K	7.837
56.87 K	7.882
59.76 K	8.582
62.64 K	9.272
66.47 K	10.14
71.22 K	11.16
75.97 K	12.13
80.79 K	13.04
85.65 K	13.89
90.55 K	14.68
95.49 K	15.41
100.46 K	16.08
105.45 K	16.71
110.46 K	17.28
115.49 K	17.81
120.54 K	18.3
125.61 K	18.75
130.68 K	19.16
134.74 K	19.47
135.77 K	19.54
139.84 K	19.82
140.87 K	19.89
144.94 K	20.16
150.05 K	20.46
155.17 K	20.75
160.3 K	21.02
165.43 K	21.27
170.57 K	21.5
175.7 K	21.72
180.85 K	21.92
186 K	22.11
191.15 K	22.28
193.33 K	22.35
196.3 K	22.45
198.48 K	22.51
201.46 K	22.6
203.64 K	22.66
206.62 K	22.74
208.8 K	22.79
213.96 K	22.93
219.13 K	23.06
224.29 K	23.19
229.45 K	23.31
232.56 K	23.38
234.62 K	23.41
237.73 K	23.49
239.79 K	23.53
242.89 K	23.59
248.06 K	23.68
253.24 K	23.77
258.41 K	23.86
263.59 K	23.95
268.77 K	24.02
273.95 K	24.09
279.13 K	24.16
284.31 K	24.23
289.49 K	24.31
294.67 K	24.38
297.38 K	24.41
299.85 K	24.44
302.55 K	24.49
307.73 K	24.55
312.92 K	24.61
318.1 K	24.67
323.28 K	24.73
325.89 K	24.75
328.47 K	24.78
331.06 K	24.8
336.25 K	24.85
341.44 K	24.91
346.62 K	24.95
351.8 K	24.99
356.99 K	25.03
363.06 K	25.07
368.04 K	25.11
373.02 K	25.17
378 K	25.25
382.98 K	25.25
387.96 K	25.3
392.94 K	25.35
397.62 K	25.41

Source: the NIST ThermoML archive (doi:10.1016/j.jct.2004.06.008)
